Measurements published in ChEMBL document CHEMBL5137128, “Daphnoretin Arrests the Cell Cycle and Induces Apoptosis in Human Breast Cancer Cells” (J Nat Prod, 2022).
Activity calls are given as the source filed them.

Columns and labels:
[1] = system: MDA-MB-231; experiment: Induction of cell cycle arrest in human MDA-MB-231 cells assessed as G2/M phase cells at 1 uM incubated for 24 hrs by propidium iodide staining based flow cytometry analysis (reference value: 4.44 %); type: functional
[2] = system: MDA-MB-231; experiment: Induction of cell cycle arrest in human MDA-MB-231 cells assessed as G0-G1 phase cells at 2 uM incubated for 24 hrs by propidium iodide staining based flow cytometry analysis (reference value: 66.84 %); type: functional
[3] = system: MDA-MB-231; experiment: Induction of cell cycle arrest in human MDA-MB-231 cells assessed as accumulation of S phase cells at 2 uM incubated for 24 hrs by propidium iodide staining based flow cytometry analysis (reference value: 28.71 %); type: functional
[4] = system: MDA-MB-231; experiment: Induction of cell cycle arrest in human MDA-MB-231 cells assessed as G2/M phase cells at 2 uM incubated for 24 hrs by propidium iodide staining based flow cytometry analysis (reference value: 4.44 %); type: functional
[5] = system: MDA-MB-231; experiment: Induction of cell cycle arrest in human MDA-MB-231 cells assessed as downregulation of CDK2 expression at 0.5 to 2 uM measured upto 24 hrs by Western blot analysis relative to control; type: functional, cell-based; conditions: dose 0.5-2 µM
[6] = system: MDA-MB-231; experiment: Induction of cell cycle arrest in human MDA-MB-231 cells assessed as downregulation of cyclin E expression at 0.5 to 2 uM measured upto 24 hrs by Western blot analysis relative to control; type: functional, cell-based; conditions: dose 0.5-2 µM
[7] = system: MCF7; experiment: Induction of apoptosis in human MCF7 cells assessed as chromatin condensation at 1 to 4 uM incubated for 24 hrs by Hoechst 33258 staining based light microscopic analysis; type: functional, cell-based; conditions: dose 1-4 µM
[8] = system: MCF7; experiment: Induction of apoptosis in human MCF7 cells assessed as nuclear condensation at 1 to 4 uM incubated for 24 hrs by Hoechst 33258 staining based light microscopic analysis; type: functional, cell-based; conditions: dose 1-4 µM
[9] = system: MCF7; experiment: Induction of apoptosis in human MCF7 cells assessed as apoptotic bodies at 1 to 4 uM incubated for 24 hrs by Hoechst 33258 staining based light microscopic analysis; type: functional, cell-based; conditions: dose 1-4 µM
[10] = system: MCF7; experiment: Induction of apoptosis in human MCF7 cells assessed as increase in total apoptotic rate at 1 to 4 uM incubated for 24 hrs by propidium iodide staining based flow cytometric analysis; type: functional, cell-based; conditions: dose 1-4 µM
[11] = system: MDA-MB-231; experiment: Induction of apoptosis in human MDA-MB-231 cells assessed as chromatin condensation at 0.5 to 2 uM incubated for 24 hrs by Hoechst 33258 staining based light microscopic analysis; type: functional, cell-based; conditions: dose 0.5-2 µM
[12] = system: MDA-MB-231; experiment: Induction of apoptosis in human MDA-MB-231 cells assessed as nuclear condensation at 0.5 to 2 uM incubated for 24 hrs by Hoechst 33258 staining based light microscopic analysis; type: functional, cell-based; conditions: dose 0.5-2 µM
[13] = system: MDA-MB-231; experiment: Induction of apoptosis in human MDA-MB-231 cells assessed as apoptotic bodies at 0.5 to 2 uM incubated for 24 hrs by Hoechst 33258 staining based light microscopic analysis; type: functional, cell-based; conditions: dose 0.5-2 µM
[14] = system: MDA-MB-231; experiment: Induction of apoptosis in human MDA-MB-231 cells assessed as increase in total apoptotic rate at 0.5 to 2 uM incubated for 24 hrs by propidium iodide staining based flow cytometry analysis relative to control; type: functional, cell-based; conditions: dose 0.5-2 µM
[15] = system: MCF7; experiment: Induction of apoptosis in human MCF7 cells assessed as decrease in Bcl-2 level at 1 to 4 uM measured upto 24 hrs by Western blot analysis; type: functional, cell-based; conditions: dose 1-4 µM
[16] = system: MCF7; experiment: Induction of apoptosis in human MCF7 cells assessed as increase in cleaved caspase-9 level at 1 to 4 uM measured upto 24 hrs by Western blot analysis; type: functional, cell-based; conditions: dose 1-4 µM
[17] = system: MCF7; experiment: Induction of apoptosis in human MCF7 cells assessed as increase in cleaved caspase-3 level at 1 to 4 uM measured upto 24 hrs by Western blot analysis; type: functional, cell-based; conditions: dose 1-4 µM
[18] = system: MCF7; experiment: Induction of apoptosis in human MCF7 cells assessed as increase in Bax level at 1 to 4 uM measured upto 24 hrs by Western blot analysis; type: functional, cell-based; conditions: dose 1-4 µM
[19] = system: MDA-MB-231; experiment: Induction of apoptosis in human MDA-MB-231 cells assessed as decrease in Bcl-2 level at 0.5 to 2 uM measured upto 24 hrs by Western blot analysis; type: functional, cell-based; conditions: dose 0.5-2 µM
[20] = system: MDA-MB-231; experiment: Induction of apoptosis in human MDA-MB-231 cells assessed as increase in cleaved caspase-9 level at 0.5 to 2 uM measured upto 24 hrs by Western blot analysis; type: functional, cell-based; conditions: dose 0.5-2 µM
[21] = system: MDA-MB-231; experiment: Induction of apoptosis in human MDA-MB-231 cells assessed as increase in cleaved caspase-3 level at 0.5 to 2 uM measured upto 24 hrs by Western blot analysis; type: functional, cell-based; conditions: dose 0.5-2 µM
[22] = system: MDA-MB-231; experiment: Induction of apoptosis in human MDA-MB-231 cells assessed as increase in Bax level at 0.5 to 2 uM measured upto 24 hrs by Western blot analysis; type: functional, cell-based; conditions: dose 0.5-2 µM
[23] = system: MCF7; experiment: Inhibition of PI3K phosphorylation in human MCF7 cells at 1 to 4 uM by Western blot analysis; type: cell-based; conditions: dose 1-4 µM
[24] = system: MCF7; experiment: Inhibition of AKT phosphorylation in human MCF7 cells at 1 to 4 uM by Western blot analysis; type: cell-based; conditions: dose 1-4 µM
[25] = system: MDA-MB-231; experiment: Inhibition of PI3K phosphorylation in human MDA-MB-231 cells at 0.5 to 2 uM by Western blot analysis; type: cell-based; conditions: dose 0.5-2 µM
[26] = system: MDA-MB-231; experiment: Inhibition of AKT phosphorylation in human MDA-MB-231 cells at 0.5 to 2 uM by Western blot analysis; type: cell-based; conditions: dose 0.5-2 µM

COc1cc2cc(Oc3ccc4ccc(=O)oc4c3)c(=O)oc2cc1O [DAPHNORETIN]
36.99%: Activity [2]
8.43%: Activity [1]
47.72%: Activity [3]
15.29%: Activity [4]
active: Activity [5] | Activity [6] | Activity [7] | Activity [8] | Activity [9] | Activity [10] | Activity [11] | Activity [12] | Activity [13] | Activity [14] | Activity [15] | Activity [16] | Activity [17] | Activity [18] | Activity [19] | Activity [20] | Activity [21] | Activity [22] | inhibition [23] | inhibition [24] | inhibition [25] | inhibition [26]
